Substitutions are numbered along the chain they refer to. “Also recorded” adds a separate entry of the source. Where two headings read alike, the source gives them in different places.
Columns and labels:
[1] = cited from earlier work
OCT1 = settings: literature data; cited from earlier work
[2] = Estimated ranitidine concentrations in portal vein and gastrointestinal tract; set-up: species or system human; settings: highest clinical dose (300 mg) in a volume of 250 ml
From the text: The concentrations were chosen to be representative for the maximal unbound plasma (Cmax) and the estimated maximal unbound portal vein concentration (Cmax port).

OCT1*3 (Arg61Cys) = biological target: T1, OCT1*3 (Arg61Cys) (Homo sapiens, UniProt O15245, L160F/R61C)
T1 sequence (O15245 1-554 R61C/L160F): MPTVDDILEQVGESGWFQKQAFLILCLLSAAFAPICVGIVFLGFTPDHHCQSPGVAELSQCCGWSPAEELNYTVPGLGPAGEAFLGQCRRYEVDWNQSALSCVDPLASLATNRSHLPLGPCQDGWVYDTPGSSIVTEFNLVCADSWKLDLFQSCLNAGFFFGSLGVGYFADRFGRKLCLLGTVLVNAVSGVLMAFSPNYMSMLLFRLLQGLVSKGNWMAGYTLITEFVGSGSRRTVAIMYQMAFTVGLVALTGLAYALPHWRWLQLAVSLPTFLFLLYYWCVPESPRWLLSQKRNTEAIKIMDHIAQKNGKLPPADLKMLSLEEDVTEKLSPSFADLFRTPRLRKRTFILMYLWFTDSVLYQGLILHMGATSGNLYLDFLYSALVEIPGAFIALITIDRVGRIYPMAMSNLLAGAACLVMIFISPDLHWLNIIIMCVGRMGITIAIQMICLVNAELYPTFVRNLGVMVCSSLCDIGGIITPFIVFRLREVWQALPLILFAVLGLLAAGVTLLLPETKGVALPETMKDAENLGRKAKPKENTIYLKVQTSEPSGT
From the text: (§1) HEK293 or CHO cells overexpressing the human OCT1 alleles *1A (characterized by the amino acid substitution Met408Val), *1B, *1C (Phe160Leu), *1D (Pro341Leu/Met408Val), *2 (Met420del), *3 (Arg61Cys), *4 (Gly401Ser), *5 (Gly465Arg/Met420del), *6 (Cys88Arg/Met420del), *7 (Ser14Phe), *8A (Arg488Met), *8B (Arg488Met/Met408Val), *9 (Pro117Leu), *10 (Ser189Leu), *11 (Ile449Thr), *12 (Ser29Leu), or *13 (Thr245Met), the human OCT2 reference and variant alleles (Ala270Ser), human OCT3, and the control cells (transfected with the empty pcDNA5 vector) were generated by targeted chromosomal integration using the Flp-In™ System (Life Technologies, Darmstadt, Germany).
(§2) Six hundred thousand HEK293 or CHO cells were plated per well in 12-well plates (pre-coated with poly-D-lysine) and were grown for 48 hours to reach confluence. Cells were kept at 37°C and 5% CO2 in DMEM (HEK293) or RPMI (CHO), supplemented with 10% FCS, 100 U/ml penicillin, and 100 μg/ml streptomycin. Uptake experiments were performed at pH 7.4 using HBSS supplemented with 10 mM HEPES buffer (herein referred to as HBSS+). […]
(§3) For all transport measurements, the intracellular amount of substrate was normalized to the total amount of protein of the sample as measured using the bicinchoninic acid assay [49].
(§4) For quantification of intracellular substrates, the cell debris were removed by centrifugation at 17,000 x g for 10 min. […]

OCT2 Ser270 (Ala270Ser) = biological target: T2, OCT2 Ser270 (Ala270Ser) (Homo sapiens, UniProt O15244); experiment: Ranitidine uptake in HEK293 cells overexpressing OCT2 variant (Ser270); assay type: in vitro ADME; settings: 1 μM ranitidine, 2 min, not significant
T2 sequence (O15244 1-555): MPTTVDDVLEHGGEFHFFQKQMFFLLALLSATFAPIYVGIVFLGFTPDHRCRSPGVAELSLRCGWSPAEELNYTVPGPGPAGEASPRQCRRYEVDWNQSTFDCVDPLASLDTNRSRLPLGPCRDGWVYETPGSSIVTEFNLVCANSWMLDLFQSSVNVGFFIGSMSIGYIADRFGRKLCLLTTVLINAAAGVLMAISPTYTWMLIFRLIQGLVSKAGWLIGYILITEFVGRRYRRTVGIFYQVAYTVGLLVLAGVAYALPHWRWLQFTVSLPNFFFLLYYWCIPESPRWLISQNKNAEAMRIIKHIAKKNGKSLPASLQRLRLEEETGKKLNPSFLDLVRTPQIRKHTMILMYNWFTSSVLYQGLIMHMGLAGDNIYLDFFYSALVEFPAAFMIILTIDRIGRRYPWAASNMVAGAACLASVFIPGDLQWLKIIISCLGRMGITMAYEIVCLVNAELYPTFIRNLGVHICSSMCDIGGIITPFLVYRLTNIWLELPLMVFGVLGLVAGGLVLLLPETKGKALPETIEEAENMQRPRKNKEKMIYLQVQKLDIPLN
From the text: as §1, §2, §3, §4

OCT1*13 (Thr245Met) = biological target: T3, OCT1*13 (Thr245Met) (Homo sapiens, UniProt O15245, L160F/T245M); experiment: Ranitidine uptake in HEK293 cells overexpressing OCT1*13; assay type: in vitro ADME; settings: 1 μM and 10 μM ranitidine, 2 min
T3 construct: expressed in transfected cells; host or cells: HEK293 T-REx (Flp-In)
T3 sequence (O15245 1-554 L160F/T245M): T1 sequence (O15245 1-554 R61C/L160F) with C61R, T245M
From the text: as §1, §2, §3, §4

OCT1*1B = biological target: T4, OCT1*1B (Homo sapiens, UniProt O15245, L160F); settings: for Vmax (±SEM): OCT1*1B reference allele, 10-600 μM ranitidine, control-cell uptake subtracted
T4 sequence (O15245 1-554 L160F): T1 sequence (O15245 1-554 R61C/L160F) with C61R
From the text: as §1
Six hundred thousand HEK293 or CHO cells were plated per well in 12-well plates (pre-coated with poly-D-lysine) and were grown for 48 hours to reach confluence. Cells were kept at 37°C and 5% CO2 in DMEM (HEK293) or RPMI (CHO), supplemented with 10% FCS, 100 U/ml penicillin, and 100 μg/ml streptomycin. Uptake experiments were performed at pH 7.4 using HBSS supplemented with 10 mM HEPES buffer (herein referred to as HBSS+). Cells were washed once with 1 ml pre-warmed HBSS+ buffer (37°C). […] Cells were washed twice with 2 ml ice-cold HBSS+ and lysed in 500 μl lysis buffer.
as §3
For quantification of intracellular substrates, the cell debris were removed by centrifugation at 17,000 x g for 10 min. Four-hundred μl of the supernatant was evaporated to dryness under nitrogen flow at 40°C. The residue was reconstituted in 200 μl 0.1% formic acid and 10 μl were injected into the LC-MS/MS. For the LC-MS/MS analysis an API 4000™ system tandem mass spectrometer (AB SCIEX, Darmstadt, Germany) was used. Samples were separated using a Brownlee SPP RP-Amide Column (4.6x100 mm, 2.7 μm; PerkinElmer), with a SecurityGuard C18, 4x2 mm pre-column (Phenomenex, Aschaffenburg, Germany).
Nonlinear regression to the Michaelis-Menten equation was performed to determine Km and vmax using GraphPad Prism version 6 (GraphPad Software Inc., La Jolla, CA, USA). Nonlinear regression to the Hill equation v = vmin+(vmax-vmin)/1+([I]/IC50)^-Hillslope was performed to determine IC50 using SigmaPlot version 12.0 (Systat Software, San Jose, California, USA).

CNC(=C[N+](=O)[O-])NCCSCc1ccc(CN(C)C)o1 [ranitidine, Ranitidine]
portion eliminated unchanged via renal excretion ([1]; after oral administration): approximately half | oral bioavailability [1]: 50–60% | time to maximal plasma concentrations after administration [1]: two to three | [I]1, mean unbound ranitidine steady state total Cmax ([1]; highest clinical dose (300 mg)): 2200 nM | bioavailability in hepatic dysfunction ([1]; increase from 50%): 70% | volume of distribution ([1]; no reference given): ~1.4 L/kg | Km (OCT1): 70 ± 9 µM | [I]2, theoretical maximal gastrointestinal ranitidine concentration after oral administration [2]: 3800 µM | decrease of vmax compared to the reference allele (OCT1*3 (Arg61Cys)): more than 50% | reduction of ranitidine uptake, Ser270 allele in comparison to the Ala270 allele (OCT2 Ser270 (Ala270Ser)): 9% | ranitidine transport activity (OCT1*13 (Thr245Met)): completely lacked ranitidine uptake; also recorded: complete lack of ranitidine transport activity | ranitidine uptake, OCT1-overexpressing compared to control cells (OCT1*1B; 1 μM ranitidine, 2 min, HEK293): 7.8 fold | intracellular concentration of ranitidine, OCT1-overexpressing cells compared to control cells (OCT1*1B; 1 μM ranitidine, after 1 min of incubation, HEK293): 8.5 fold | Vmax (±SEM) (OCT1*1B; HEK293, 2 min): 1125 ± 86.1 pmol x min^-1 x mg protein^-1 | Vmax (±SEM) (OCT1*1B; HEK293, 2 min, listed as Ranitidine): 1125 pmol x min^-1 x mg protein^-1 | vmax (OCT1*1B; wild-type OCT1 (abstract)): 1125 pmol/min/mg protein

Source: PMC5728534 (PLoS ONE, 2017)
